Measurements as given in patent US4272437A, “Antibacterial agents, and 4-thio azetidinone intermediates” (priority 1979, dated 1981).
≈ marks a conversion by molar mass, not a printed value. Where two headings read alike, the source gives them in different places.

How the values were obtained:
[1] = test system: Staph. aureus (Meth-Res) A-15097; assay: MIC, tube dilution, Staphylococcus aureus A15097 (Meth-Res); format: cell-based; settings: Staph. aureus A15097 (Meth-Res), overnight 37° C.; for MIC: Staphylococcus aureus, read-out: Minimum Inhibitory Concentration (M.I.C.)
From the text: (§1) Representative compounds of the present invention were subjected to in vitro antibiotic screening against a variety of microorganisms.

Ent. cloacae A-9659 = assay: MIC, tube dilution, Enterobacter cloacae A9659; format: cell-based; settings: overnight 37° C.; for MIC: Enterobacter cloacae, A9659, Enterobacter cloacae A9659, read-out: Minimum Inhibitory Concentration (M.I.C.)
From the text: as §1

Str. pneumoniae A-9585 = assay: MIC, tube dilution, Streptococcus pneumoniae A9585; format: cell-based; settings: overnight 37° C., Nutrient Broth; for MIC: Streptococcus pneumoniae, A9585, Str. pneumoniae A9585, read-out: Minimum Inhibitory Concentration (M.I.C.)
From the text: as §1

Proteus vulgaris A21559 = assay: MIC, tube dilution, Proteus vulgaris A21559; format: cell-based; settings: overnight 37° C.; for MIC: Proteus vulgaris, A21559, Proteus vulgaris A21559, read-out: Minimum Inhibitory Concentration (M.I.C.)
From the text: as §1

Pr. mirabilis A-9900 = assay: MIC, tube dilution, Proteus mirabilis A9900; format: cell-based; settings: overnight 37° C.; for MIC: Proteus mirabilis, A9900, Proteus mirabilis A9900, read-out: Minimum Inhibitory Concentration (M.I.C.)
From the text: as §1

Staph. aureus A-9537 = assay: MIC, tube dilution, Staphylococcus aureus A9537; format: cell-based; settings: overnight 37° C., Nutrient Broth; for MIC: Staphylococcus aureus, A9537, Staph. aureus A9537, read-out: Minimum Inhibitory Concentration (M.I.C.)
From the text: as §1

Ps. aeruginosa A-21213 = assay: MIC, tube dilution, Pseudomonas aeruginosa A21213; format: cell-based; settings: overnight 37° C.; for MIC: read-out: Minimum Inhibitory Concentration (M.I.C.)
From the text: as §1

E. coli A-20341-1 = assay: MIC, tube dilution, Escherichia coli A20341-1; format: cell-based
From the text: as §1

Str. faecalis A-20688 = assay: MIC, tube dilution, Streptococcus faecalis A20688; format: cell-based; settings: overnight 37° C.; for MIC: Enterococcus faecalis, A20688, Str. faecalis A20688, read-out: Minimum Inhibitory Concentration (M.I.C.)
From the text: as §1

Ser. marcescens A-20019 = assay: MIC, tube dilution, Serratia marcescens A20019; format: cell-based; settings: overnight 37° C.; for MIC: Serratia marcescens, A20019, Serratia marcescens A20019, read-out: Minimum Inhibitory Concentration (M.I.C.)
From the text: as §1

Proteus rettgeri A21203 = assay: MIC, tube dilution, Proteus rettgeri A21203; format: cell-based; settings: overnight 37° C.; for MIC: Providencia rettgeri, A21203, Proteus rettgeri A21203, read-out: Minimum Inhibitory Concentration (M.I.C.)
From the text: as §1

Str. pyogenes A-9604 = assay: MIC, tube dilution, Streptococcus pyogenes A9604; format: cell-based; settings: overnight 37° C., Nutrient Broth; for MIC: Streptococcus pyogenes, A9604, Str. pyogenes A9604, read-out: Minimum Inhibitory Concentration (M.I.C.)
From the text: as §1

[2] = test system: Klebsiella species A20468; assay: MIC, tube dilution, Klebsiella species A20468; format: cell-based; settings: Klebsiella species (K. pneumoniae) A20468, overnight 37° C.; for MIC: read-out: Minimum Inhibitory Concentration (M.I.C.)
From the text: as §1

Ps. aeruginosa A-9843A = assay: MIC, tube dilution, Pseudomonas aeruginosa A9843A; format: cell-based; settings: overnight 37° C.; for MIC: Pseudomonas aeruginosa, A9843A, read-out: Minimum Inhibitory Concentration (M.I.C.), Pseudomonas aeruginosa A9843A
From the text: as §1

[3] = test system: Staph. aureus (Pen-Res) A-9606; assay: MIC, tube dilution, Staphylococcus aureus A9606 (Pen-Res); format: cell-based; settings: Staph. aureus A9606 (Pen-Res), overnight 37° C.; for MIC: Staphylococcus aureus, read-out: Minimum Inhibitory Concentration (M.I.C.)
From the text: as §1

K. pneumoniae A-15130 = assay: MIC, tube dilution, Klebsiella pneumoniae A15130; format: cell-based; settings: overnight 37° C.; for MIC: Klebsiella pneumoniae, A15130, K. pneumoniae A15130, read-out: Minimum Inhibitory Concentration (M.I.C.)
From the text: as §1

Pr. morganii A-15153 = assay: MIC, tube dilution, Proteus morganii A15153; format: cell-based; settings: overnight 37° C.; for MIC: Morganella morganii, A15153, Proteus morganii A15153, read-out: Minimum Inhibitory Concentration (M.I.C.)
From the text: as §1

Ent. cloacae A-9656 = assay: MIC, tube dilution, Enterobacter cloacae A9656; format: cell-based; settings: overnight 37° C.; for MIC: Enterobacter cloacae, A9656, Enterobacter cloacae A9656, read-out: Minimum Inhibitory Concentration (M.I.C.)
From the text: as §1

E. coli A-15119 = assay: MIC, tube dilution, Escherichia coli A15119; format: cell-based; settings: overnight 37° C.; for MIC: Escherichia coli, A15119, E. coli A15119, read-out: Minimum Inhibitory Concentration (M.I.C.)
From the text: as §1

[4] = test system: Staph. aureus A-9537 and 50% serum; assay: MIC, tube dilution, Staph. aureus A9537 + 50% serum; format: cell-based, Staphylococcus aureus; settings: overnight 37° C.; for MIC: Staphylococcus aureus, read-out: Minimum Inhibitory Concentration (M.I.C.)
From the text: as §1

[5] = Pseudomonas aeruginosa, A21213, Pseudomonas aeruginosa A21213
[6] = Escherichia coli, A203411, E. coli A20341-1; overnight 37° C.; read-out: Minimum Inhibitory Concentration (M.I.C.)

Structure (SMILES): NCCSCC1=C(C(=O)O)N2C(=O)CC2S1 (centres unmarked) [Example 88, 2-(2-Aminoethylthiomethyl)penem-3-carboxylic Acid]
- MIC [1]: 16 µg/mL (≈ 61.5 µM)
- MIC (Ent. cloacae A-9659): 32 µg/mL (≈ 123 µM)
- MIC (Str. pneumoniae A-9585): 0.13 µg/mL (≈ 0.499 µM)
- MIC (Proteus vulgaris A21559): 16 µg/mL (≈ 61.5 µM)
- MIC (Pr. mirabilis A-9900): 4 µg/mL (≈ 15.4 µM)
- MIC (Staph. aureus A-9537): 0.13 µg/mL (≈ 0.499 µM)
- MIC (Ps. aeruginosa A-21213; [5]): > 63 µg/mL
- MIC (E. coli A-20341-1; [6]): 16 µg/mL (≈ 61.5 µM)
- MIC (Str. faecalis A-20688): 63 µg/mL (≈ 242 µM)
- MIC (Ser. marcescens A-20019): 8 µg/mL (≈ 30.7 µM)
- MIC (Proteus rettgeri A21203): 8 µg/mL (≈ 30.7 µM)
- MIC (Str. pyogenes A-9604): 0.13 µg/mL (≈ 0.499 µM)
- MIC [2]: > 63 µg/mL
- MIC (Ps. aeruginosa A-9843A): 63 µg/mL (≈ 242 µM)
- MIC [3]: 16 µg/mL (≈ 61.5 µM)
- MIC (K. pneumoniae A-15130): 8 µg/mL (≈ 30.7 µM)
- MIC (Pr. morganii A-15153): 8 µg/mL (≈ 30.7 µM)
- MIC (Ent. cloacae A-9656): 32 µg/mL (≈ 123 µM)
- MIC (E. coli A-15119): 4 µg/mL (≈ 15.4 µM)
- MIC [4]: 0.5 µg/mL

Structure (SMILES): O=C(O)C1=C(Cn2cnnn2)SC2CC(=O)N12 (centres unmarked) [Example 76, Sodium 2-(1H-Tetrazolemethyl)-penem-3-carboxylate]
- MIC [1]: 8 µg/mL
- MIC (Ent. cloacae A-9659): 16 µg/mL
- MIC (Str. pneumoniae A-9585): 0.03 µg/mL
- MIC (Proteus vulgaris A21559): 8 µg/mL
- MIC (Pr. mirabilis A-9900): 8 µg/mL
- MIC (Staph. aureus A-9537): 1 µg/mL
- MIC (Ps. aeruginosa A-21213; Pseudomonas aeruginosa A21213): > 125 µg/mL
- MIC (E. coli A-20341-1; Escherichia coli, A203411; E. coli A20341-1; overnight 37° C.; read-out: Minimum Inhibitory Concentration (M.I.C.)): > 125 µg/mL
- MIC (Str. faecalis A-20688): 125 µg/mL
- MIC (Ser. marcescens A-20019): 16 µg/mL
- MIC (Proteus rettgeri A21203): 8 µg/mL
- MIC (Str. pyogenes A-9604): 0.5 µg/mL
- MIC [2]: > 125 µg/mL
- MIC (Ps. aeruginosa A-9843A): > 125 µg/mL
- MIC [3]: 4 µg/mL
- MIC (K. pneumoniae A-15130): 63 µg/mL
- MIC (Pr. morganii A-15153): 16 µg/mL
- MIC (Ent. cloacae A-9656): 16 µg/mL
- MIC (E. coli A-15119): 4 µg/mL
- MIC [4]: > 63 µg/mL

Structure (SMILES): NCCCCCC1=C(C(=O)O)N2C(=O)C[C@H]2S1 [Example 102, (5R) 2-(5'-aminopentyl)-penem-3-carboxylic acid]
- Minimum Inhibitory Concentration (M.I.C.) [1]: 8 µg/mL
- Minimum Inhibitory Concentration (M.I.C.) (Ent. cloacae A-9659; Enterobacter cloacae A9659): 4 µg/mL
- Minimum Inhibitory Concentration (M.I.C.) (Str. pneumoniae A-9585; Str. pneumoniae A9585): .008 µg/mL
- Minimum Inhibitory Concentration (M.I.C.) (Proteus vulgaris A21559; Proteus vulgaris A21559): 16 µg/mL
- Minimum Inhibitory Concentration (M.I.C.) (Pr. mirabilis A-9900; Proteus mirabilis A9900): 2 µg/mL
- Minimum Inhibitory Concentration (M.I.C.) (Staph. aureus A-9537; Staph. aureus A9537): .03 µg/mL
- Minimum Inhibitory Concentration (M.I.C.) (Ps. aeruginosa A-21213; Pseudomonas aeruginosa A21213): > 63 µg/mL
- Minimum Inhibitory Concentration (M.I.C.) (E. coli A-20341-1; E. coli A20341-1; overnight 37° C.): 16 µg/mL
- Minimum Inhibitory Concentration (M.I.C.) (Str. faecalis A-20688; Str. faecalis A20688): 4 µg/mL
- Minimum Inhibitory Concentration (M.I.C.) (Ser. marcescens A-20019; Serratia marcescens A20019): 2 µg/mL
- Minimum Inhibitory Concentration (M.I.C.) (Proteus rettgeri A21203; Proteus rettgeri A21203): 2 µg/mL
- Minimum Inhibitory Concentration (M.I.C.) (Str. pyogenes A-9604; Str. pyogenes A9604): .016 µg/mL
- Minimum Inhibitory Concentration (M.I.C.) [2]: > 63 µg/mL
- Minimum Inhibitory Concentration (M.I.C.) (Ps. aeruginosa A-9843A; Pseudomonas aeruginosa A9843A): 8 µg/mL
- Minimum Inhibitory Concentration (M.I.C.) [3]: 2 µg/mL
- Minimum Inhibitory Concentration (M.I.C.) (K. pneumoniae A-15130; K. pneumoniae A15130): 2 µg/mL
- Minimum Inhibitory Concentration (M.I.C.) (Pr. morganii A-15153; Proteus morganii A15153): 2 µg/mL
- Minimum Inhibitory Concentration (M.I.C.) (Ent. cloacae A-9656; Enterobacter cloacae A9656): 2 µg/mL
- Minimum Inhibitory Concentration (M.I.C.) (E. coli A-15119; E. coli A15119): 1 µg/mL
- Minimum Inhibitory Concentration (M.I.C.) [4]: .25 µg/mL

Structure (SMILES): CCC(N)CC1=C(C(=O)O)N2C(=O)CC2S1 (centres unmarked) [Example 100, 2-(2'-Aminobutyl)-penem-3-carboxylic Acid]
- MIC [1]: > 32 µg/mL
- MIC (Ent. cloacae A-9659): 16 µg/mL (≈ 66 µM)
- MIC (Str. pneumoniae A-9585): 0.25 µg/mL (≈ 1.03 µM)
- MIC (Proteus vulgaris A21559): 16 µg/mL (≈ 66 µM)
- MIC (Pr. mirabilis A-9900): 8 µg/mL (≈ 33 µM)
- MIC (Staph. aureus A-9537): 0.25 µg/mL (≈ 1.03 µM)
- MIC (Ps. aeruginosa A-21213; [5]): > 32 µg/mL
- MIC (E. coli A-20341-1; [6]): 32 µg/mL (≈ 132 µM)
- MIC (Str. faecalis A-20688): > 32 µg/mL
- MIC (Ser. marcescens A-20019): 8 µg/mL (≈ 33 µM)
- MIC (Proteus rettgeri A21203): 8 µg/mL (≈ 33 µM)
- MIC (Str. pyogenes A-9604): 0.25 µg/mL (≈ 1.03 µM)
- MIC [2]: > 32 µg/mL
- MIC (Ps. aeruginosa A-9843A): > 32 µg/mL
- MIC [3]: > 32 µg/mL
- MIC (K. pneumoniae A-15130): 16 µg/mL (≈ 66 µM)
- MIC (Pr. morganii A-15153): 16 µg/mL (≈ 66 µM)
- MIC (Ent. cloacae A-9656): 8 µg/mL (≈ 33 µM)
- MIC (E. coli A-15119): 4 µg/mL (≈ 16.5 µM)
- MIC [4]: 8 µg/mL
